Measured values taken from the Kinase Knowledgebase extract (Sharma et al. 2016).

These compounds were tested against MAPK14 (human) (UniProt Q16539) (assay: Assessment of MAPK14 Kinase Activity by Fluorescence Anisotropy Kinase Binding Assay).
MAPK14 (human), sequence (Q16539 whole entry, looked up): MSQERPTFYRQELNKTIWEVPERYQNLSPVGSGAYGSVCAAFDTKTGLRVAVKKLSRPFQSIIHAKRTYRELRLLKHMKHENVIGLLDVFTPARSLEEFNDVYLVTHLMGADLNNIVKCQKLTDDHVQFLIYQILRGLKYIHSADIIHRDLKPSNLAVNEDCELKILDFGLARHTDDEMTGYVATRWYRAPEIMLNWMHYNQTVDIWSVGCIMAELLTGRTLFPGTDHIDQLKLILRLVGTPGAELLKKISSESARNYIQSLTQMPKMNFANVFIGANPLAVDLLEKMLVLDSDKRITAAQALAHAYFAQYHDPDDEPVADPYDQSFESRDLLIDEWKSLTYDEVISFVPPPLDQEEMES

| SMILES | IC50 | Ki |
| --- | --- | --- |
| O=c1ccc2c(-c3ccccc3Cl)cc(NC(CO)CO)cc2n1-c1ccccc1Cl | – | 20 nM |
| O=c1ccc2c(-c3ccccc3)nccc2n1Cc1ccccc1 | – | 20 nM |
| O=c1ccc2c(-c3ccccc3)nccc2[nH]1 | < 1000 nM | – |
| O=c1ccc2c(-c3ccccc3Cl)nc(Br)cc2n1-c1ccccc1Cl | – | 20 nM |
| COc1cc2c(ccc(=O)n2-c2ccccc2Cl)c(-c2ccccc2Cl)c1Br | – | 12.6 nM |
| O=c1ccc2c(-c3ccccc3Cl)nc(Cl)cc2n1-c1ccccc1Cl | – | 20 nM |

Now from value to compound:

| IC50 | Ki | SMILES |
| --- | --- | --- |
| < 1000 nM | – | O=c1ccc2c(-c3ccc(F)cc3F)cccc2n1-c1ccc(F)cc1 |
| < 1000 nM | – | O=c1ccc2c(-c3ccccc3F)cccc2n1-c1ccc(F)cc1 |
| < 1000 nM | – | O=c1ccc2c(-c3ccc(F)cc3F)ccnc2n1-c1ccc(F)cc1 |
| < 1000 nM | – | O=c1ccc2c(-c3ccc(F)cc3)cccc2n1-c1ccc(F)cc1 |
| < 1000 nM | – | O=c1ccc2c(-c3ccc(F)cc3)ccnc2n1-c1ccc(F)cc1 |
